Source: US8686050B2, “Diglycidic ether derivative therapeutics and methods for their use” (British Columbia Cancer Agency Branch, priority 2008, dated 2014)
Entries after “also recorded” stand apart in the source; their conditions may differ. Counter-ions that a name gives are not always drawn.

Legend:
PC3 xenografts = assay: PC3 subcutaneous xenografts in non-castrated mice; format: in vivo, NOD-SCID male mice; settings: 20 mg/kg body weight every 5 days, listed as PNG01-185-017-9-2, 20 mg/kg
Procedure: Six to eight-week old male athymic SCID mice were inoculated subcutaneously in the flank region via a 27-gauge needle with a 150 μl suspension of LNCaP or PC3 human prostate cancer cells (1×10^6 cells). The inoculations took place while the animal was under isofluorane anaesthesia. The tumor take rate is approximately 75%. Mice bearing tumors of 100 mm^3 were randomly assigned to treatment groups. Castration was performed as described below. Tumor volume (formula: L×W×H×0.5236) was measured in mice bearing LNCaP subcutaneous tumors that became palpable or visible and at least 40 mm^3. The animals were monitored daily and tumors were measured every 5 days.

[1] = target: T1, AR interaction with the ARE on the PSA enhancer (Homo sapiens, UniProt P10275, T878A); assay: ChIP of AR on the PSA enhancer ARE in LNCaP cells; format: cell-based; settings: DHT 3 h or 16 h, 185-9-2 10 μg/ml
T1 construct: LNCaP cells express endogenous AR and secrete prostate-specific antigen (PSA); endogenous in cells; host or cells: LNCaP
T1 sequence (P10275 1-920 T878A): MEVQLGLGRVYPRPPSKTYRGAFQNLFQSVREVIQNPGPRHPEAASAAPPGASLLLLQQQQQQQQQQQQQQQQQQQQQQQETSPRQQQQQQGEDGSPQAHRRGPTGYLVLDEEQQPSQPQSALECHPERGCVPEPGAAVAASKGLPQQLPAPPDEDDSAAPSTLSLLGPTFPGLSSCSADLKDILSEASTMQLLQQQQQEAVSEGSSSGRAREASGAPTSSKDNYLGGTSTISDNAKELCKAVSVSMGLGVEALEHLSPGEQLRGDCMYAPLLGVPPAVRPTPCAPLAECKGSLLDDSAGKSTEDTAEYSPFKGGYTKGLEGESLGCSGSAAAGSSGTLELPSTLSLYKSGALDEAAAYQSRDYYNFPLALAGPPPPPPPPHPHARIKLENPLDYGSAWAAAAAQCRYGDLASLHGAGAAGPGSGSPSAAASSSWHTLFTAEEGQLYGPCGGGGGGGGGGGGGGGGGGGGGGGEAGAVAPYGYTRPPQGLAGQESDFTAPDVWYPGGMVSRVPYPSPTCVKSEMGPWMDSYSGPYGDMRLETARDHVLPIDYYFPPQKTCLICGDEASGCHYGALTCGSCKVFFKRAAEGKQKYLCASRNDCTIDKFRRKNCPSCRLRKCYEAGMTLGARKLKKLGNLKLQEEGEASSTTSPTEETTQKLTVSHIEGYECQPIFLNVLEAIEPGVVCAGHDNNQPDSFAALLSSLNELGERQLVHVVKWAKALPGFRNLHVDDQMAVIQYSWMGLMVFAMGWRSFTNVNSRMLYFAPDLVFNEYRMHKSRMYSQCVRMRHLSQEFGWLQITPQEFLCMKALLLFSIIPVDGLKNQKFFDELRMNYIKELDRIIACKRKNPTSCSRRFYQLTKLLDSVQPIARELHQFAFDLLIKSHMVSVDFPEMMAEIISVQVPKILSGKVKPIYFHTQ

[2] = General toxicity in xenograft-bearing mice (behavior, body weight, organ histology)
Procedure: For routine histology, major organs and xenografts were harvested upon completion of the experiment and were fixed in 10% neutral buffered formalin and then embedded in paraffin. Fixed sections were cut and stained with H&E. To determine possible effects of compounds on the proliferation rates and apoptosis in xenografts, Ki-67 immunostaining and the TUNEL assay was performed. […] Levels of AR were determined by immunohistochemistry or Western blot analysis.
LNCaP human prostate cancer cells express endogenous androgen receptor (AR) and prostate-specific antigen (PSA), and progress to androgen independence in castrated hosts. LNCaP cells (10^6/ml) were implanted subcutaneously into NOD-SCID male mice that were at least 8 weeks in age. The cells were suspended in 75 μl of RPMI medium 1640 (5% FBS) with 75 μl of Matrigel and injected into the flank region of the host under anesthesia. […] A total of five doses were given to the animal. Tumor volume and body weight were measured every 5 days.
IHC data was prepared by a commercial lab that was blinded to treatments.
PC3 cells were implanted subcutaneously into NOD-SCID male mice. […] Animals were treated every 5 days with a subcutaneous dose of 20 mg/kg body weight of PNG01-185-017-9-2 or matching volume of vehicle (control, DMSO). Tumor volume and body weight were measured every 5 days.

PC3 cells = assay: Proliferation of PC3 cells (BrdU incorporation); format: cell-based, human; settings: 185-9-2 5 μg/ml, 3 days
Description: LNCaP cells were employed initially for all experiments because they are well-differentiated human prostate cancer cells in which ligand-independent activation of the AR by FSK has been characterized (Nazareth et al 1996 J. Biol. Chem. 271, 19900-19907; and Sadar 1999 J. Biol. Chem. 274, 7777-7783). LNCaP cells express endogenous AR and secrete prostate-specific antigen (PSA) (Horoszewicz et al 1983 Cancer Res. 43, 1809-1818). LNCaP cells can be grown either as monolayers in cell culture or as tumors in the well-characterized xenograft model that progresses to androgen independence in castrated hosts (Sato et al 1996 J. Steroid Biochem. Mol. Biol. 58, 139-146; Gleave et al 1991 Cancer Res. 51, 3753-3761; Sato et al 1997 Cancer Res. 57, 1584-1589; and Sadar et al 2002 Mol. Cancer. Ther. 1(8), 629-637). […] Small molecules that specifically target the AR-NTD should have no effect on PC3 cells. […] Reporter specificity may be determined using several alternative reporter gene constructs. […]
The prostate gland is an androgen-dependent organ where androgens are the predominant mitogenic stimulus (Isaacs J T, Scott W W, Coffey D S., Prog Clin Biol Res. 1979; 33:133-44). […] BrdU incorporation was measured 4 days later to indicate changes in proliferation in response to androgen (FIG. 12). […]

CC(C)(c1ccc(OCC(O)CO)cc1)c1ccc(OCC(O)CCl)cc1 (stereo not shown) [185-9-2, BADGE.HCL.H2O]
PC3 xenograft tumor growth (PC3 xenografts): had a small effect on PC3 tumor growth but did not reduce tumor burden; also recorded: did not reduce tumors but did slightly slow the growth | AR interaction with the ARE on the PSA enhancer in response to androgen (ChIP) [1]: inhibited AR interaction with the ARE | body weight, LNCaP xenograft mice, intravenous ([2]; I.V. 50 mg/kg every other day): did not reduce body weight | body weight, LNCaP xenograft mice, intratumoral ([2]; day 0 versus day 25): did not reduce body weight | pathology review of lung, heart, liver, spleen, and kidney ([2]; i.v. 50 mg/kg every other day, 5 injections, H&E): showed no signs of toxicity | general toxicity indicated by animal behavior or body weight ([2]; mouse, in vivo, iv): not to cause general toxicity | proliferation of PC3 cells (BrdU incorporation) (PC3 cells): does NOT block proliferation; also recorded: not to block proliferation
